This note sets out measurements from PMC11435093, “Synthesis and Evaluation of ^99mTc(CO)3 Complexes with Ciprofloxacin Dithiocarbamate for Infection Imaging” (Pharmaceutics, 2024).

The nature of data set [1]: Lipophilicity: partition between n-octanol and PBS pH 7.4. The class given is physicochemical. The settings on record: n-octanol/PBS pH 7.4, M: 99mTc, three determinations. How it is done: The lipophilicity of HPLC purified technetium-99m complexes 1′–6′ was determined by measuring the partition coefficient (logD7.4) between n-octanol and phosphate-buffered saline (PBS, pH 7.4) based on established literature methods and is briefly described here. An aliquot of each technetium-99m complex was added to a mixture of equal volumes (2.0 mL each) of n-octanol and PBS (pH 7.4) in a 5 mL centrifuge tube. The mixture was vigorously vortexed for 2 min and then centrifuged at 5000 rpm for 5 min to ensure complete phase separation. After centrifugation, 0.1 mL aliquots from both the n-octanol and PBS phases were sampled and their radioactivity was measured using a gamma counter. The log P was calculated using the following equation: […]. The procedure was repeated three times for each complex to ensure reproducibility.

In data set [2] the test system is Swiss Albino mice with induced infection (Staphylococcus aureus) and aseptic inflammation (turpentine). In words: Biodistribution in mice with induced infection and aseptic inflammation. In kind it is in vivo. The settings on record: for Urine radioactivity: per sample. How it is done:
The in vivo behavior of HPLC purified technetium-99m complexes 1′–6′ was evaluated through biodistribution studies in Swiss Albino mice (40 ± 5 g) with induced infection and aseptic inflammation. The experiment was conducted in accordance with the guidelines for the protection of animals used for scientific purposes. Mice were divided into groups and prepared for biodistribution studies by inducing infection and aseptic inflammation. Twenty-four hours prior to the injection of the technetium complexes, the left thigh muscle of each mouse was inoculated with 50 µL of a Staphylococcus aureus suspension (1 × 10^6 CFU/mL) to induce infection. Aseptic inflammation was induced in the right thigh muscle by injecting 50 µL of turpentine oil. The technetium-99m complexes were administered intravenously via the tail vein. Each mouse received an injection of 0.037 MBq of the respective technetium-99m complex. The biodistribution was studied at two different time points, 15 min and 120 min post-injection. At each time point, the mice were sacrificed under anesthesia. Blood samples were obtained by cardiac puncture. The organs of interest were collected after dissection, including the liver, heart, kidneys, stomach, intestines, spleen, muscle (normal, infected, and inflamed), lungs, pancreas, and urinary bladder. The organs were made free from adhering tissues and transferred into pre-weighed counting vials. The radioactivity of the collected samples was measured using a shielded well-type gamma counter. The results were expressed as a percentage of injected dose per gram of tissue (% ID/g). The radioactivity ratios in infected muscle to normal muscle and inflamed muscle to normal muscle were calculated to assess the specificity and selectivity of the technetium complexes for infection and inflammation.

In data set [1], “fac-[M(CO)3(Cip-DTC)(ADAP)] [complex 6′]” registered a LogD7.4 of 1.6. Besides, in data set [2] (15 min post i.v. injection), the “Aseptic Infl. (turpentine inflamed muscle) radioactivity” value stood at 1.10 ± 0.06 %ID/g, the Blood radioactivity is 2.18 ± 0.06 %ID/g, the Heart radioactivity turned out to be 4.27 ± 0.42 %ID/g and the “Infection (S. aureus infected muscle) radioactivity” value (“Infection” for short) is 0.94 ± 0.09 %ID/g. In data set [2] (15 min post i.v. injection), the Intestines radioactivity was 3.22 ± 0.32 %ID/g, the Kidneys radioactivity is 8.05 ± 0.22 %ID/g, the Liver radioactivity was found to be 20.95 ± 1.56 %ID/g and the Lungs radioactivity is given as 7.13 ± 0.35 %ID/g. Further, in data set [2] (15 min post i.v. injection), the “Muscle (normal) radioactivity” value is listed as 1.01 ± 0.12 %ID/g, the Pancreas radioactivity is listed as 3.70 ± 0.26 %ID/g, the Spleen radioactivity is on record as 6.40 ± 0.66 %ID/g and the Stomach radioactivity is on record as 0.98 ± 0.29 %ID/g. The Urine radioactivity in data set [2] (15 min post i.v. injection) is listed as 0.37 ± 0.08 %ID. In data set [2] (120 min post i.v. injection), the “Aseptic Infl. (turpentine inflamed muscle) radioactivity” value is 0.66 ± 0.10 %ID/g, the Blood radioactivity was found to be 1.33 ± 0.10 %ID/g, the Heart radioactivity was 1.94 ± 0.31 %ID/g and the “Infection” value is reported as 0.69 ± 0.09 %ID/g. Further, in data set [2] (120 min post i.v. injection), the Intestines radioactivity is on record as 10.24 ± 1.11 %ID/g, the Kidneys radioactivity turned out to be 4.47 ± 0.52 %ID/g, the Liver radioactivity is 22.98 ± 2.70 %ID/g and the Lungs radioactivity is recorded as 3.06 ± 0.10 %ID/g. Further, in data set [2] (120 min post i.v. injection), the “Muscle (normal) radioactivity” value was 0.69 ± 0.05 %ID/g, the Pancreas radioactivity is on record as 2.27 ± 0.37 %ID/g, the Spleen radioactivity came out at 2.55 ± 0.27 %ID/g and the Stomach radioactivity is given as 3.14 ± 0.69 %ID/g. Moreover, the Urine radioactivity in data set [2] (120 min post i.v. injection) was found to be 1.49 ± 0.23 %ID.
`O=C(O)c1cn(C2CC2)c2cc(N3CCN(C(=S)[S][99Tc])CC3)c(F)cc2c1=O.[C-]#[O+].[C-]#[O+].[C-]#[O+].c1ccc(P(c2ccccc2)c2ccccc2)cc1` [complex 2′, fac-[^99mTc(CO)3(Cip-DTC)(PPh3)]] yielded a LogD7.4 in data set [1] of 2.3. Besides, in data set [2] (15 min post i.v. injection), the “Aseptic Infl. (turpentine inflamed muscle) radioactivity” value stood at 1.21 ± 0.07 %ID/g, the Blood radioactivity is reported as 4.51 ± 1.32 %ID/g, the Heart radioactivity is 1.23 ± 0.36 %ID/g and the “Infection” value was 2.93 ± 0.09 %ID/g. In addition, in data set [2] (15 min post i.v. injection), the Intestines radioactivity was determined as 0.14 ± 0.03 %ID/g, the Kidneys radioactivity amounted to 1.30 ± 0.13 %ID/g, the Liver radioactivity stood at 32.36 ± 3.58 %ID/g and the Lungs radioactivity is listed as 6.66 ± 1.45 %ID/g. In data set [2] (15 min post i.v. injection), the “Muscle (normal) radioactivity” value came to 0.90 ± 0.09 %ID/g, the Pancreas radioactivity amounted to 0.47 ± 0.20 %ID/g, the Spleen radioactivity is recorded as 38.44 ± 3.92 %ID/g and the Stomach radioactivity is 0.55 ± 0.23 %ID/g. In data set [2] (15 min post i.v. injection), the “aseptic inflammation/normal muscle ratio” value is on record as 1.34, the infected/normal muscle ratio came out at 3.29 and the Urine radioactivity is listed as 3.95 ± 1.30 %ID. Besides, in data set [2] (120 min post i.v. injection), the “Aseptic Infl. (turpentine inflamed muscle) radioactivity” value was 0.86 ± 0.10 %ID/g, the Blood radioactivity is recorded as 5.19 ± 0.81 %ID/g, the Heart radioactivity stood at 3.97 ± 0.25 %ID/g and the “Infection” value is listed as 3.12 ± 0.14 %ID/g. In data set [2] (120 min post i.v. injection), the Intestines radioactivity stood at 1.08 ± 0.07 %ID/g, the Kidneys radioactivity worked out at 6.50 ± 0.36 %ID/g, the Liver radioactivity is 27.16 ± 4.02 %ID/g and the Lungs radioactivity is 10.20 ± 0.12 %ID/g. Moreover, in data set [2] (120 min post i.v. injection), the “Muscle (normal) radioactivity” value stood at 0.68 ± 0.05 %ID/g, the Pancreas radioactivity is 1.04 ± 0.04 %ID/g, the Spleen radioactivity is given as 37.02 ± 4.43 %ID/g and the Stomach radioactivity was determined as 1.23 ± 0.14 %ID/g. Besides, in data set [2] (120 min post i.v. injection), the “aseptic inflammation/normal muscle ratio” value is 1.28, the infected/normal muscle ratio was found to be 4.62 and the Urine radioactivity was determined as 4.04 ± 1.23 %ID. Also, the “blood clearance / blood radioactivity course” value in data set [2] (within 120 min) is listed as “relatively stable”.
In turn, “fac-[M(CO)3(Cip-DTC)(DMPP)] [complex 5′]” had a LogD7.4 in data set [1] of 2.0. In addition, in data set [2] (15 min post i.v. injection), the Liver radioactivity came to 35.51 ± 0.97 %ID/g, the Lungs radioactivity came out at 9.87 ± 0.89 %ID/g, the “Muscle (normal) radioactivity” value came to 0.40 ± 0.06 %ID/g and the Pancreas radioactivity was 0.83 ± 0.18 %ID/g. In addition, in data set [2] (15 min post i.v. injection), the Spleen radioactivity worked out at 18.04 ± 0.73 %ID/g. In addition, in data set [2] (120 min post i.v. injection), the Intestines radioactivity was found to be 9.98 ± 1.22 %ID/g, the Kidneys radioactivity came to 5.69 ± 1.44 %ID/g, the Liver radioactivity is 31.27 ± 5.71 %ID/g and the Lungs radioactivity came to 5.37 ± 0.47 %ID/g. Also, in data set [2] (120 min post i.v. injection), the “Muscle (normal) radioactivity” value came to 1.34 ± 0.09 %ID/g, the Pancreas radioactivity was 3.68 ± 0.48 %ID/g and the Spleen radioactivity turned out to be 7.64 ± 1.22 %ID/g.
